This experiment has as its system carrageenan-induced edema in the hind paws. Briefly: Carrageenan-induced hind paw edema in rats (oral administration). The class given is in vivo, Male Wistar rats. To be noted: Rattus norvegicus, 1 hour before 0.1 ml of 1% carrageenan, 3 hours. As to the method:
Male Wistar rats each weighing about 100 g, one group consisting of 5 to 7 animals, were orally given the compounds according to this invention, and edema was induced in the hind paws by subcutaneous injections of 0.1 ml of 1% carrageenan one hour after the administration of the test compounds. Thereafter, the volumes of the hind paws were measured by a volume differential meter.
A general note: In the carrageenan paw model, swelling and tenderness develop within hours.

These results are taken from patent publication US4263437A, “Acetic acid derivatives of 5,6-dihydrobenzo[b]pyrido[3,2-f]thiepine and oxepine” (Nippon Chemiphar Co., Ltd., priority 1978, dated 1981).

SMILES strings stand for the structures.

`CCOC(=O)Cc1ccc2c(c1)CCc1cccnc1O2` [Compound 15, Ethyl(5,6-dihydrobenzo[b]pyrido[3,2-f]oxepin-8-yl)-acetate] displayed an inhibition in vivo at 5 mg/kg of 41.6%.
The value for `CCOC(=O)Cc1ccc2c(c1)CCc1ccccc1S2` [Compound 5, Ethyl(10,11-dihydrodibenzo[b,f]thiepin-2-yl)-acetate] was 46%; that for `O=C(O)Cc1ccc2c(c1)C(=O)Cc1ccccc1O2` [Compound 6, (10,11-dihydro-11-oxo dibenzo[b,f]oxepin-2-yl)-acetic acid] was 44.1%.
Regarding `O=C(O)Cc1ccc2c(c1)C(=O)Cc1ccccc1S2` [Compound 1, (10,11-Dihydro-11-oxo dibenzo[b,f]thiepin-2-yl)-acetic acid], the inhibition in vivo at 5 mg/kg worked out at 58%.
The compound `CCOC(=O)Cc1ccc2c(c1)C(=O)Cc1ccccc1S2` [Compound 3, Ethyl(10,11-dihydro-11-oxodibenzo[b,f]thiepin-2-yl)-acetate] came in with an inhibition in vivo at 5 mg/kg of 50.6%.
Regarding `COC(=O)Cc1ccc2c(c1)C(=O)Cc1cccnc1S2` [Compound 10, Methyl (5,6-dihydro-6-oxo benzo[b]pyrido[3,2-f]thiepin-8-yl)-acetate], the inhibition in vivo at 5 mg/kg came out at 38.4%.
`CCOC(=O)Cc1ccc2c(c1)CCc1cccnc1S2` [Compound 13, Ethyl(5,6-dihydrobenzo[b]pyrido[3,2-f]thiepin-8-yl)-acetate] returned an inhibition in vivo at 5 mg/kg of 64.6%.
The value for `CCCCC1C(=O)N(c2ccccc2)N(c2ccccc2)C1=O` [Phenylbutazone, reference compound] was 20.9%; that for `O=C(O)c1ccccc1Nc1cccc(C(F)(F)F)c1` [Flufenamic acid, reference compound] was 29.3%.
In turn, `O=C(O)Cc1ccc2c(c1)CCc1ccccc1O2` [Compound 8, (10,11-Dihydro dibenzo[b,f]oxepin-2-yl)-acetic acid] showed an inhibition in vivo at 5 mg/kg of 61.4%.
To `CCOC(=O)Cc1ccc2c(c1)CCc1ccccc1O2` [Compound 9, Ethyl (10,11-dihydro dibenzo[b,f]oxepin-2-yl)-acetate] belongs 63.4%.
To `O=C(O)Cc1ccc2c(c1)CCc1cccnc1O2` [Compound 14, (5,6-Dihydro benzo[b]pyrido[3,2-f]oxepin-8-yl)-acetic acid] belongs 50.6%; to `O=C(O)Cc1ccc2c(c1)CCc1cccnc1S2` [Compound 11, (5,6-Dihydro benzo[b]pyrido[3,2-f]thiepin-8-yl)-acetic acid], 59.7%; to `NC(=O)Cc1ccc2c(c1)C(=O)Cc1ccccc1S2` [Compound 2, (10,11-Dihydro-11-oxo dibenzo[b,f]thiepin-2-yl)-acetamide], 42.1%.
`NC(=O)Cc1ccc2c(c1)CCc1cccnc1S2` [Compound 12, (5,6-Dihydro benzo[b]pyrido[3,2-f]thiepin-8yl)-acetamide] yielded an inhibition in vivo at 5 mg/kg of 43.9%.
`O=C(O)Cc1ccc2c(c1)CCc1ccccc1S2` [Compound 4, (10,11-Dihydro dibenzo[b,f]thiepin-2-yl)-acetic acid] displayed an inhibition in vivo at 5 mg/kg of 45.3%.
`CCOC(=O)Cc1ccc2c(c1)C(=O)Cc1ccccc1O2` [Compound 7, Ethyl(10,11-dihydro-11-oxodibenzo[b,f]oxepin-2-yl)-acetate] showed an inhibition in vivo at 5 mg/kg of 47.9%.

In general, inhibition in vivo refers to how much of the control response was suppressed. Low values mean a weak effect, high ones a strong effect.
